# Source: the supplement of paper PMC10307832
# What was measured:
# Experiment in all cases: relative viability (nuclei count vs DMSO), 5 days (fraction); higher = more cells survive
# XMD13-2 + Foretinib = compound: C1CC1C(=O)NC2=NNC3=C2C=CC(=C3)C4=CC(=CC=C4)C(=O)NC5CC5 [XMD13-2] + COc1cc2c(Oc3ccc(NC(=O)C4(C(=O)Nc5ccc(F)cc5)CC4)cc3F)ccnc2cc1OCCCN1CCOCC1 [Foretinib] (partner 0.25 µM)
# How it was run: (§1)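 A single step with final 0.05% Triton X-100, 1% formaldehyde and 1 ug/ml Hoechst fixed the cells and stained nuclei 5 days after treatment. Lung cancer cell lines in 1536-well plates had been treated by pin tool the day after seeding with one drug alone or a fixed anchor-drug dose plus five library-drug doses (not always all listed) in √10 steps, and nuclei were counted on 4× images. Relative viability is the ratio of nuclei in treated wells to nuclei in vehicle wells, taken as the median of duplicate plates.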
# ALW-II-49-7 + OSI-027 = compound: Cc1ccc(C(=O)Nc2cccc(C(F)(F)F)c2)cc1Nc1cncc(C(N)=O)c1 [ALW-II-49-7] + COc1cccc2cc(-c3nc([C@H]4CC[C@H](C(=O)O)CC4)n4ncnc(N)c34)[nH]c12 [OSI-027] (partner 0.5 µM)
# How it was run: as §1
# Dasatinib + Lapatinib = compound: Cc1nc(Nc2ncc(C(=O)Nc3c(C)cccc3Cl)s2)cc(N2CCN(CCO)CC2)n1 [Dasatinib] + CS(=O)(=O)CCNCc1ccc(-c2ccc3ncnc(Nc4ccc(OCc5cccc(F)c5)c(Cl)c4)c3c2)o1 [Lapatinib] (partner 2 µM)
# How it was run: as §1
# XMD13-2 + Decitabine = compound: C1CC1C(=O)NC2=NNC3=C2C=CC(=C3)C4=CC(=CC=C4)C(=O)NC5CC5 [XMD13-2] + Nc1ncn([C@H]2C[C@H](O)[C@@H](CO)O2)c(=O)n1 [Decitabine] (partner 2 µM)
# How it was run: as §1
Cell Line,relative viability (XMD13-2 + Foretinib; first compound 0.05 µM),relative viability (XMD13-2 + Foretinib; first compound 0.1581 µM),relative viability (XMD13-2 + Foretinib; first compound 0.5 µM),relative viability (XMD13-2 + Foretinib; first compound 1.581 µM),relative viability (XMD13-2 + Foretinib; first compound 5 µM),relative viability (ALW-II-49-7 + OSI-027; first compound 0.08 µM),relative viability (ALW-II-49-7 + OSI-027; first compound 0.253 µM),relative viability (ALW-II-49-7 + OSI-027; first compound 0.8 µM),relative viability (ALW-II-49-7 + OSI-027; first compound 2.53 µM),relative viability (ALW-II-49-7 + OSI-027; first compound 8 µM),relative viability (Dasatinib + Lapatinib; first compound 0.005 µM),relative viability (Dasatinib + Lapatinib; first compound 0.01581 µM),relative viability (Dasatinib + Lapatinib; first compound 0.05 µM),relative viability (Dasatinib + Lapatinib; first compound 0.1581 µM),relative viability (Dasatinib + Lapatinib; first compound 0.5 µM),relative viability (XMD13-2 + Decitabine; first compound 0.05 µM),relative viability (XMD13-2 + Decitabine; first compound 0.1581 µM),relative viability (XMD13-2 + Decitabine; first compound 0.5 µM),relative viability (XMD13-2 + Decitabine; first compound 1.581 µM),relative viability (XMD13-2 + Decitabine; first compound 5 µM)
SK-LU-1,1.04,0.854,0.933,0.81,0.697,0.269,0.345,0.313,0.289,0.252,0.467,0.53,0.424,0.305,0.298,0.569,0.601,0.746,0.616,0.628
NCI-H23,1.21,0.83,1.02,1.06,1.01,0.52,0.492,0.476,0.562,0.475,1.01,1.09,0.911,0.539,0.764,0.271,0.335,0.329,0.33,0.301
NCI-H1355,1.08,0.944,1.04,1.08,1.1,0.372,0.404,0.363,0.364,0.353,0.988,0.902,0.898,0.704,0.49,0.358,0.385,0.386,0.379,0.375
COR-L23,1.14,0.986,0.977,0.986,0.942,0.556,0.709,0.828,0.715,0.677,0.983,0.853,0.955,0.74,0.737,0.438,0.399,0.513,0.458,0.376
NCI-H2023,0.82,0.825,0.791,0.798,0.864,0.379,0.44,0.37,0.354,0.3,0.584,0.703,0.742,0.758,0.64,0.255,0.214,0.215,0.22,0.195
